# In PubChem BioAssay AID1645862 (Buhrlage Lab, Dana-Farber Cancer Institute and Novartis …, 2021):
# Active and inactive are the calls of the source. No rule for the calls is given here.
# Target: Ubiquitin carboxyl-terminal hydrolase 8 (Homo sapiens) (UniProt P40818)
# Experiment: Ubiquitin-specific protease 8 inhibitors, concentration-effect, biochemical, validation of initial actives (AID 1645862);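 also: potency reflects inhibition of USP8 cleavage of a ubiquitin rhodamine substrate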
# Details: recombinant USP8 deubiquitinase activity assay
# Chain of Ubiquitin carboxyl-terminal hydrolase 8 (Homo sapiens) (P40818 whole entry, looked up): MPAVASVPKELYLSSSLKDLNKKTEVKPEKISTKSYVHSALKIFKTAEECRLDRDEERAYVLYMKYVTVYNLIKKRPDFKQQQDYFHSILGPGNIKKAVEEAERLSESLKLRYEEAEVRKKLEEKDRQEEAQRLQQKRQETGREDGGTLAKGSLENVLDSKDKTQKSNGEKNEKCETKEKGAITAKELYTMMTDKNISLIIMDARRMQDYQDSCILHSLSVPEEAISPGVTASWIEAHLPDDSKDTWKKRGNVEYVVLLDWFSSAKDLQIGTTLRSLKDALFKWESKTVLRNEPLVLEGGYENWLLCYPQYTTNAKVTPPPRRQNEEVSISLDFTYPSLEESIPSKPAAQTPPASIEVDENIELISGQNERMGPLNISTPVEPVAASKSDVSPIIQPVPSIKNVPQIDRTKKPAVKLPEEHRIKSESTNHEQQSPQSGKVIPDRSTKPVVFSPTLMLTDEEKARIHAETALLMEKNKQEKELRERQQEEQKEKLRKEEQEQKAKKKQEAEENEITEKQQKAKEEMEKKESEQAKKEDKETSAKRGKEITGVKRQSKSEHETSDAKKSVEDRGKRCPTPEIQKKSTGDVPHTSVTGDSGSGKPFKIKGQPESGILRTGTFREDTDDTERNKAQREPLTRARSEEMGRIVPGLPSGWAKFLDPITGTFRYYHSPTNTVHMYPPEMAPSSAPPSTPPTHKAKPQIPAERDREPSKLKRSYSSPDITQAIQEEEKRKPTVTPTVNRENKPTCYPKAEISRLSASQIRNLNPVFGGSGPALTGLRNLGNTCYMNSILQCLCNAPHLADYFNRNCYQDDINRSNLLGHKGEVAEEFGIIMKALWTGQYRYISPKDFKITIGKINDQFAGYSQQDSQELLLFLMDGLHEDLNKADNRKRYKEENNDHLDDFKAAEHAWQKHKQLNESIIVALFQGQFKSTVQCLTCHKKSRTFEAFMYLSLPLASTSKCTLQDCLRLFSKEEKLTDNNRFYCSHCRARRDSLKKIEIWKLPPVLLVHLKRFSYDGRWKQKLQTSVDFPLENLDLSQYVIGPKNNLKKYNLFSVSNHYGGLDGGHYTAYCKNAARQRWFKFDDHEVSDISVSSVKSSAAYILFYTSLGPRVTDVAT
row,SMILES,IC50
1,Cc1cccc(-c2nnn3c2nc(NCC2CCCO2)c2ccccc23)c1 (configuration not stated),> 40 µM (inactive)
2,COc1ccc(C(=O)Nc2nc(-c3ccc4c(c3)NC(=O)CO4)c(C)s2)cc1OC,> 40 µM (inactive)
3,O=C(CSc1nnc2n(-c3ccccc3)c(=O)c3ccccc3n12)c1ccc(F)cc1,> 40 µM (inactive)
4,COCC(=O)N1CCC(n2c(C3CC3)nc3sc(C)c(C)c3c2=O)CC1,> 40 µM (inactive)
5,O=S1(=O)CCN(CC2CCCO2)c2c(Oc3ccccc3)nc(F)c(Cl)c21 (configuration not stated),> 40 µM (inactive)
6,O=C(Nc1ccccc1Cl)c1cc(-c2ccncc2)n[nH]1,> 40 µM (inactive)
7,COc1ccc(-c2cc3n(c(=N)c2C#N)CCc2cc4c(cc2-3)OCO4)cc1O,> 40 µM (inactive)
8,Fc1cccc(Nc2ncnc3c2oc2ccccc23)c1,> 40 µM (inactive)
9,Cc1ccc(C(=O)c2cn(CC(=O)Nc3ccc(F)c(F)c3)c3ccc(F)cc3c2=O)cc1,> 40 µM (inactive)
10,Cc1ccc2cc(CNc3ccccc3)c(=O)n(CC(=O)Nc3ccccc3C)c2c1,> 40 µM (inactive)
11,Cc1ccc(S(=O)(=O)Nc2ccccc2C(=O)Nc2nc3ccc(Br)cc3s2)cc1,18.9 µM
12,O=C(Cn1cnc(-c2noc(-c3ccc(F)cc3)n2)c1)Nc1ccccc1F,> 40 µM (inactive)
